Patent publication US9555014B2, “Therapeutic regimens” (Radius Health, Inc., priority 2010, dated 2017)
Structures can show the parent of a compound that is named as a salt.

Test system: postmenopausal women with frequent, moderate to severe vasomotor symptoms (hot flashes)
Experiment: Phase 2a study: hot flash frequency, severity and composite score
Format: in vivo, human (postmenopausal women)
Conditions: for Composite Scores by Week: mean; for Mean Severity Scores by Week / Weekly Mean Frequency of Mild, Moderate and Severe Hot Flash Numbers / Weekly Mean Frequency of Moderate and Severe Hot Flash Numbers: mean (SD)
Excerpt: A phase 2a study was undertaken to assess the effect of (R)-6-(2-(ethyl(4-(2-(ethylamino)ethyl)benzyl)amino)-4-methoxyphenyl)-5,6,7,8-tetrahydronaphthalen-2-ol dihydrochloride (referred to as “drug” in tables below) to alleviate hot flashes in postmenopausal women. The study design and objectives are detailed below.
This is a randomized, placebo-controlled, double-blind, parallel-group, Phase 2, multi-center, dose-finding study to evaluate the effects of (R)-6-(2-(ethyl(4-(2-(ethylamino)ethyl)benzyl)amino)-4-methoxyphenyl)-5,6,7,8-tetrahydronaphthalen-2-ol dihydrochloride in the treatment of vasomotor symptoms in postmenopausal women.
A total of 100 eligible patients will be randomized to receive one of 5 blinded treatment regimens. (R)-6-(2-(ethyl(4-(2-(ethylamino)ethyl)benzyl)amino)-4-methoxyphenyl)-5,6,7,8-tetrahydronaphthalen-2-ol dihydrochloride at doses 0, 10, 25, 50 or 100 mg will be dosed for 28-days.
Patients will document in real time hot flash frequency and severity according to a predetermined scale, in the provided electronic or paper Study Diary. Study Diary entries of hot flash frequency and severity and associated symptoms will be reviewed at each study visit. Serum markers of estrogen effect will be measured at specific study visits while on treatment.
The efficacy endpoints assessed are: • Change in frequency of hot flashes over time • Change in severity of hot flashes over time; • Change in composite score of hot flashes over time (frequency×severity)
(R)-6-(2-(ethyl(4-(2-(ethylamino)ethyl)benzyl)amino)-4-methoxyphenyl)-5,6,7,8-tetrahydronaphthalen-2-ol dihydrochloride was provided by sponsor in capsule form for oral administration. All doses (0, 10, 25, 50 and 100 mg) were provided as identical presentations. Each patient was provided with 2 containers of 28-capsules each at the start of treatment and took one capsule from each container every day for 28-days. Placebo contained the same excipients as active medication, but without (R)-6-(2-(ethyl(4-(2-(ethylamino)ethyl)benzyl)amino)-4-methoxyphenyl)-5,6,7,8-tetrahydronaphthalen-2-ol dihydrochloride. The patients were instructed to take the capsules orally in the fasted state (morning).
Changes in the efficacy endpoints of frequency, severity, and composite score of hot flashes over time; associated hot flash symptoms (palpitations, insomnia, joint aches, and headaches), PD markers of estrogen effect (FSH, LH, and lipid profile), drug levels, and MRS were to be summarized using descriptive statistics. Frequency, severity, and composite score of hot flashes over time were to be analyzed using repeated measures analysis of variance (ANOVA) with factors for treatment (treatment groups), time (study day) and their interaction. A linear trend test for treatment groups (placebo, and 10, 25, 50, 100 mg doses of drug) and for study day as well as any potential interaction between the two was to be included as part of the analyses by including both dose and time as continuous variables in the ANOVA model. Pair-wise comparisons of change from baseline were to be tested between the placebo group and each drug dose group for each timepoint; the mean difference together with a 95% confidence interval of the difference was to be presented for placebo compared with each active treatment group. Nominal p-values at Week 4 were to be presented. In addition, graphical presentations of mean (±standard error of the mean) and percent group responses over time together with repeated measures ANOVA to assess potential trend in responses over time in each dose group were to be presented. For the associated vasomotor symptoms (palpitations, insomnia, joint aches, and headaches collected in the patient diaries), patient and event frequencies were to be summarized by treatment week and treatment group.
Hot flashes were also scored according to their severity with a mild hot flash scored a “1”, a moderate hot flash scored a “2” and a severe hot flash scored a “3”. […]

CCNCCc1ccc(CN(CC)c2cc(OC)ccc2[C@@H]2CCc3cc(O)ccc3C2)cc1 [drug, (R)-6-(2-(ethyl(4-(2-(ethylamino)ethyl)benzyl)amino)-4-methoxyphenyl)-5,6,7,8-tetrahydronaphthalen-2-ol dihydrochloride]
Composite Scores by Week (10 mg daily PO, Week 1, ITT): 73.68
Mean Severity Scores by Week (10 mg daily PO, Week 1, ITT): 1.99 (0.460)
Weekly Mean Frequency of Mild, Moderate and Severe Hot Flash Numbers (10 mg daily PO, Week 1, ITT): 36.0 (18.97)
Weekly Mean Frequency of Moderate and Severe Hot Flash Numbers (10 mg daily PO, Week 1, ITT): 30.4 (18.92)
Composite Scores by Week (10 mg daily PO, Week 2, ITT): 47.75
Mean Severity Scores by Week (10 mg daily PO, Week 2, ITT): 1.80 (0.514)
Weekly Mean Frequency of Mild, Moderate and Severe Hot Flash Numbers (10 mg daily PO, Week 2, ITT): 27.2 (15.16)
Weekly Mean Frequency of Moderate and Severe Hot Flash Numbers (10 mg daily PO, Week 2, ITT): 18.5 (13.34)
Composite Scores by Week (10 mg daily PO, Week 3, ITT): 37.15
Mean Severity Scores by Week (10 mg daily PO, Week 3, ITT): 1.84 (0.570)
Weekly Mean Frequency of Mild, Moderate and Severe Hot Flash Numbers (10 mg daily PO, Week 3, ITT): 21.2 (12.99)
Weekly Mean Frequency of Moderate and Severe Hot Flash Numbers (10 mg daily PO, Week 3, ITT): 14.5 (11.92)
Composite Scores by Week (10 mg daily PO, Week 4, ITT): 34.35
Mean Severity Scores by Week (10 mg daily PO, Week 4, ITT): 1.86 (0.562)
Weekly Mean Frequency of Mild, Moderate and Severe Hot Flash Numbers (10 mg daily PO, Week 4, ITT): 19.1 (12.95)
Weekly Mean Frequency of Moderate and Severe Hot Flash Numbers (10 mg daily PO, Week 4, ITT): 13.4 (11.54)
reduction in severity of hot flashes compared with other groups (10 mg dose vs placebo and 25, 50, 100 mg, Table 8 / FIG. 3): greatest reduction in severity of hot flashes at all time points
reduction in moderate and severe hot flashes compared with other groups (10 mg group vs placebo and 25, 50, 100 mg, Table 6 / FIG. 1): greatest reduction in hot flashes at each weekly time point
reduction in all (mild, moderate and severe) hot flashes compared with other groups (10 mg group vs placebo and 25, 50, 100 mg, Table 7): greatest reduction in hot flashes at each weekly time point
composite score reduction compared with other groups (10 mg group vs placebo and 25, 50, 100 mg, Table 9 / FIG. 4): greatest composite score reduction at each weekly timepoint
Weekly Mean Frequency of Mild, Moderate and Severe Hot Flash Numbers (10 mg group, Baseline, ITT): 66.0 (13.89)
Weekly Mean Frequency of Moderate and Severe Hot Flash Numbers (10 mg group, Baseline, ITT): 63.1 (14.23)
Mean Severity Scores by Week (10 mg group, Baseline, ITT, mild=1, moderate=2, severe=3): 2.37 (0.347)
Composite Scores by Week (10 mg group, Baseline, ITT, frequency x severity): 156.45
Composite Scores by Week (25 mg daily PO, Week 1, ITT): 142.71
Mean Severity Scores by Week (25 mg daily PO, Week 1, ITT): 2.12 (0.392)
Weekly Mean Frequency of Mild, Moderate and Severe Hot Flash Numbers (25 mg daily PO, Week 1, ITT): 64.4 (48.88)
Weekly Mean Frequency of Moderate and Severe Hot Flash Numbers (25 mg daily PO, Week 1, ITT): 57.7 (50.49)
Composite Scores by Week (25 mg daily PO, Week 2, ITT): 102.82
Mean Severity Scores by Week (25 mg daily PO, Week 2, ITT): 2.09 (0.447)
Weekly Mean Frequency of Mild, Moderate and Severe Hot Flash Numbers (25 mg daily PO, Week 2, ITT): 48.0 (48.80)
Weekly Mean Frequency of Moderate and Severe Hot Flash Numbers (25 mg daily PO, Week 2, ITT): 42.3 (49.73)
Composite Scores by Week (25 mg daily PO, Week 3, ITT): 102.59
Mean Severity Scores by Week (25 mg daily PO, Week 3, ITT): 2.14 (0.408)
Weekly Mean Frequency of Mild, Moderate and Severe Hot Flash Numbers (25 mg daily PO, Week 3, ITT): 46.6 (56.27)
Weekly Mean Frequency of Moderate and Severe Hot Flash Numbers (25 mg daily PO, Week 3, ITT): 43.3 (57.15)
Composite Scores by Week (25 mg daily PO, Week 4, ITT): 89.59
Mean Severity Scores by Week (25 mg daily PO, Week 4, ITT): 2.06 (0.404)
Weekly Mean Frequency of Mild, Moderate and Severe Hot Flash Numbers (25 mg daily PO, Week 4, ITT): 42.4 (53.18)
Weekly Mean Frequency of Moderate and Severe Hot Flash Numbers (25 mg daily PO, Week 4, ITT): 37.4 (54.76)
Weekly Mean Frequency of Mild, Moderate and Severe Hot Flash Numbers (25 mg group, Baseline, ITT): 75.8 (46.46)
Weekly Mean Frequency of Moderate and Severe Hot Flash Numbers (25 mg group, Baseline, ITT): 65.9 (44.30)
Mean Severity Scores by Week (25 mg group, Baseline, ITT, mild=1, moderate=2, severe=3): 2.26 (0.348)
Composite Scores by Week (25 mg group, Baseline, ITT, frequency x severity): 165.47
Composite Scores by Week (50 mg daily PO, Week 1, ITT): 104.35
Mean Severity Scores by Week (50 mg daily PO, Week 1, ITT): 1.92 (0.402)
Weekly Mean Frequency of Mild, Moderate and Severe Hot Flash Numbers (50 mg daily PO, Week 1, ITT): 54.0 (27.15)
Weekly Mean Frequency of Moderate and Severe Hot Flash Numbers (50 mg daily PO, Week 1, ITT): 41.7 (23.79)
Composite Scores by Week (50 mg daily PO, Week 2, ITT): 87.78
Mean Severity Scores by Week (50 mg daily PO, Week 2, ITT): 1.88 (0.535)
Weekly Mean Frequency of Mild, Moderate and Severe Hot Flash Numbers (50 mg daily PO, Week 2, ITT): 45.8 (25.16)
Weekly Mean Frequency of Moderate and Severe Hot Flash Numbers (50 mg daily PO, Week 2, ITT): 32.8 (25.52)
Composite Scores by Week (50 mg daily PO, Week 3, ITT): 77.67
Mean Severity Scores by Week (50 mg daily PO, Week 3, ITT): 1.86 (0.544)
Weekly Mean Frequency of Mild, Moderate and Severe Hot Flash Numbers (50 mg daily PO, Week 3, ITT): 40.5 (22.37)
Weekly Mean Frequency of Moderate and Severe Hot Flash Numbers (50 mg daily PO, Week 3, ITT): 29.6 (25.09)
Composite Scores by Week (50 mg daily PO, Week 4, ITT): 75.06
Mean Severity Scores by Week (50 mg daily PO, Week 4, ITT): 1.83 (0.568)
Weekly Mean Frequency of Mild, Moderate and Severe Hot Flash Numbers (50 mg daily PO, Week 4, ITT): 37.9 (23.45)
Weekly Mean Frequency of Moderate and Severe Hot Flash Numbers (50 mg daily PO, Week 4, ITT): 29.4 (26.53)
Weekly Mean Frequency of Mild, Moderate and Severe Hot Flash Numbers (50 mg group, Baseline, ITT): 76.0 (36.96)
Weekly Mean Frequency of Moderate and Severe Hot Flash Numbers (50 mg group, Baseline, ITT): 71.9 (36.92)
Mean Severity Scores by Week (50 mg group, Baseline, ITT, mild=1, moderate=2, severe=3): 2.14 (0.313)
Composite Scores by Week (50 mg group, Baseline, ITT, frequency x severity): 162.19
Composite Scores by Week (100 mg daily PO, Week 1, ITT): 104.35
Mean Severity Scores by Week (100 mg daily PO, Week 1, ITT): 2.04 (0.334)
Weekly Mean Frequency of Mild, Moderate and Severe Hot Flash Numbers (100 mg daily PO, Week 1, ITT): 48.6 (23.32)
Weekly Mean Frequency of Moderate and Severe Hot Flash Numbers (100 mg daily PO, Week 1, ITT): 41.9 (24.23)
Composite Scores by Week (100 mg daily PO, Week 2, ITT): 87.18
Mean Severity Scores by Week (100 mg daily PO, Week 2, ITT): 2.01 (0.406)
Weekly Mean Frequency of Mild, Moderate and Severe Hot Flash Numbers (100 mg daily PO, Week 2, ITT): 41.6 (27.37)
Weekly Mean Frequency of Moderate and Severe Hot Flash Numbers (100 mg daily PO, Week 2, ITT): 35.6 (28.06)
Composite Scores by Week (100 mg daily PO, Week 3, ITT): 59.75
Mean Severity Scores by Week (100 mg daily PO, Week 3, ITT): 1.88 (0.473)
Weekly Mean Frequency of Mild, Moderate and Severe Hot Flash Numbers (100 mg daily PO, Week 3, ITT): 29.4 (23.91)
Weekly Mean Frequency of Moderate and Severe Hot Flash Numbers (100 mg daily PO, Week 3, ITT): 24.5 (24.06)
Composite Scores by Week (100 mg daily PO, Week 4, ITT): 43.67
Mean Severity Scores by Week (100 mg daily PO, Week 4, ITT): 1.89 (0.484)
Weekly Mean Frequency of Mild, Moderate and Severe Hot Flash Numbers (100 mg daily PO, Week 4, ITT): 23.1 (19.45)
Weekly Mean Frequency of Moderate and Severe Hot Flash Numbers (100 mg daily PO, Week 4, ITT): 18.6 (19.16)
Weekly Mean Frequency of Mild, Moderate and Severe Hot Flash Numbers (100 mg group, Baseline, ITT): 63.6 (13.23)
Weekly Mean Frequency of Moderate and Severe Hot Flash Numbers (100 mg group, Baseline, ITT): 58.5 (12.67)
Mean Severity Scores by Week (100 mg group, Baseline, ITT, mild=1, moderate=2, severe=3): 2.21 (0.330)
Composite Scores by Week (100 mg group, Baseline, ITT, frequency x severity): 140.35
